{"source": "patent US20070009544A1", "about": "“Anti-allergic complex molecules” (priority 1999, published 2007)", "key": {"[1]": {"test_system": "purified rat peritoneal mast cells", "experiment": "Histamine secretion from intact mast cells incubated with peptide alone (secretagogue side effect)", "conditions": "for Secretagogue (histamine secretion following incubation of mast cell with different concentrations of each peptide): no allergen; for histamine secretion from mast cells on incubation with increasing concentrations of peptide alone: no additional allergen", "procedure": "Mast cells from the peritoneal cavity of C.R rats were isolated in Tyrode buffer (137 mM NaCl, 2.7 mM KC1, 1 mM MgCl2, 0.4 mM NaH2PO4, 20 mM Hepes, 1.0 mM CaCl2, 5.6 mM glucose, 1 mg/ml BSA, pH 7.2) and purified over a Ficoll gradient. A suspension of washed peritoneal cells was placed over a cushion of 30% Ficoll 400 (Pharmacia Biotech.) in buffered Saline containing 0.1% BSA; and centrifuged at 150O×g for 15 min. The purity of mast cells recovered from the bottom of the tube was >90%, as assessed by toluidine blue staining.\nPurified mast cells (duplicated of 10^5 cells/0.5 ml) were incubated in Tyrode buffer with buffer or with desired concentrations of the indicated peptide for 2 h. at. 37° C. Histamine secretion was subsequently stimulated by the indicated concentration of compound 48/80 (Sigma) dissolved in Tyrode buffer. Incubation with compound 48/80 was carried out for 20 mm.in at 37° C. The reaction was terminated by placing the tubes on ice. The cells were sedimented by centrifugation at 150×g for 5 mm.in and the supernatants were collected. The amount of histamine release was determined as previously described (Aridor et al., 1990). Briefly, cell pellets were lysed using 0.1N NaOH and the volume of each sample was adjusted to 0.5 ml by H2O. Histamine content was assayed using the o-phtalaldehyde (OPT) fluorimetric method (Shore et al., 1959). Aliquots of 0.4 ml from the supernatants and cell lysates were incubated with 1.6 ml H20, 0.4 ml 1N NaOH and 0.1 ml of 10 mg/l ml OPT in methanol, for 4 min at room temperature. The reaction was terminated by the addition of 0.2 ml 3N HCl. Samples were centrifuged at 150×g for 5 min. and 0.2 ml samples were transferred to a 96 well plate. The histamine spectrofluorometric assay was run in microplates using a microplates reader (FL-600, Biotek instruments Winooski, Vt., USA). Samples were excited by light at 340 nm and read at 440 nm. Histamine release was calculated as the percentage of total histamine content (supernatant/pellet+supernatant) in each sample. Each data point represents the average of duplicate measurements. The spontaneously released histamine was subtracted."}, "[2]": {"test_system": "purified rat peritoneal mast cells", "type": "cell-based", "method": "37° C. […] Each data point represents the average of duplicate measurements. The spontaneously released histamine was subtracted.\nFirst, the effect of compound 48/80 on exocytosis from intact mast cells was determined. […] Histamine release was determined and is presented as the net secretion that is % of the total cellular histamine following subtraction of the spontaneously released histamine. Half-maximal release was obtained at 0.1 μg/ml while maximal release was obtained at 1-10 μg/ml. Accordingly, in order to analyze the potential of each peptide to block histamine secretion, histamine secretion was induced with 5 μg/ml compound 48/80, a concentration that induces a maximal histamine release, while the cells were incubated in the presence of increasing concentrations of each peptide.\nIn order to investigate the ability of these peptides to block allergen-induced exocytosis, the peptides were examined for their ability to block compound 48/80 induced histamine secretion from intact mast cells in vitro. Mast cells were incubated with different concentrations of each peptide, followed by induction of histamine secretion by compound 48/80."}}, "note": "Numbered stars: 1 amine (or outer) side, 2 acyl side, 3 side chain; on linkers, the order of the positions; unused ones are H or OH. Ends that are not written are not given here. Peptide text beside a SMILES is read from it. Suc = O=C(CCC(=O)[*:2])[*:1]"}
{"molecule": "AAVALLPAVLLALLAAKNNLKECGLY [WALL004]", "values": [{"measurement": "histamine secretion from mast cells, peptide alone", "setting": "[1]; especially at a peptide concentration exceeding 200 μg/ml", "result": "moderate histamine secretion"}]}
{"molecule": "AAVALLPAVLLALLAPLKECGLY [Peptide 20]", "values": [{"measurement": "Secretagogue (histamine secretion following incubation of mast cell with different concentrations of each peptide)", "setting": "[1]; Table 1, peptide alone", "result": "−"}, {"measurement": "histamine secretion from mast cells on incubation with increasing concentrations of peptide alone", "setting": "[1]", "result": "did not induce histamine secretion"}]}
{"molecule": "AAVALLPAVLLALLAPLKDCGLF [Peptide 21]", "values": [{"measurement": "histamine secretion from mast cells, peptide alone", "setting": "[1]; at higher doses of 400 and 600 μg/ml", "result": "induced some histamine secretion"}]}
{"molecule": "CC(C)C[C@H](NC(=O)CNC(=O)[C@H](CS)NC(=O)[C@H](CCC(=O)O)NC(=O)[C@H](CCCCN)NC(=O)[C@H](CC(C)C)NC(=O)[C@H](CC(N)=O)NC(=O)[C@H](CO)NC(=O)[C@H](CCCCN)NC(=O)[C@@H]1CCCN1C(=O)[C@H](C)NC(=O)[C@H](CC(C)C)NC(=O)[C@H](CC(C)C)NC(=O)[C@H](C)NC(=O)[C@H](CC(C)C)NC(=O)[C@H](CC(C)C)NC(=O)[C@@H](NC(=O)[C@H](C)NC(=O)[C@@H]1CCCN1C(=O)[C@H](CC(C)C)NC(=O)[C@H](CC(C)C)NC(=O)[C@H](C)NC(=O)[C@@H](NC(=O)[C@H](C)NC(=O)[C@H](C)NC(=O)CCC(=O)O)C(C)C)C(C)C)C(=O)N[C@@H](Cc1ccc(O)cc1)C(=O)O", "note": "[WALL011] (Suc-AAVALLPAVLLALLAPKSNLKECGLY-OH; C-terminus assumed)", "values": [{"measurement": "Secretagogue (histamine secretion following incubation of mast cell with different concentrations of each peptide)", "setting": "[1]; Table 9, peptide alone", "result": "−"}, {"measurement": "histamine secretion from mast cells on incubation with increasing concentrations of peptide alone", "setting": "[1]", "result": "did not result in histamine secretion"}, {"measurement": "basal level of histamine secretion compared to control cells", "setting": "[1]; peptide alone at 400-600 μg/ml", "result": "minor inhibition of the basal level of histamine secretion"}, {"measurement": "IC50, compound 48/80 induced histamine secretion", "setting": "[2]", "result": 160, "unit": "µg/mL"}, {"measurement": "maximal inhibition of compound 48/80 induced histamine secretion", "setting": "[2]; 600 μg/ml peptide, compound 48/80 concentration not given", "result": 87, "unit": "%"}, {"measurement": "Inhibitor (extent of inhibition of histamine secretion from mast cells)", "setting": "[2]; Table 9, incubation with different concentrations of each peptide, then induction of the allergic reaction", "result": "+++ (+++ Potent inhibitor (≧80% inhibition))"}]}
{"molecule": "AAVALLPAVLLALLAPKENLKDCGLF [Peptide 5]", "values": [{"measurement": "Secretagogue (histamine secretion following incubation of mast cell with different concentrations of each peptide)", "setting": "[1]; Table 1, peptide alone", "result": "−"}]}
{"molecule": "KAAVALLPAVLLALLAPKNNLKDCGLF [Peptide 12]", "values": [{"measurement": "Secretagogue (histamine secretion following incubation of mast cell with different concentrations of each peptide)", "setting": "[1]; Table 1, peptide alone", "result": "+"}, {"measurement": "histamine secretion from mast cells on incubation with increasing concentrations of peptide alone", "setting": "[1]", "result": "induced histamine secretion from mast cells in a concentration dependent manner"}]}
{"molecule": "VTVLALGALAGVGVGKENLKDCGLF [Peptide 4]", "values": [{"measurement": "stimulatory effect on histamine secretion", "setting": "[1]; peptide alone, concentration range of up to 400 p.g/ml (FIG. 1A)", "result": "hardly any stimulatory effect"}]}
{"molecule": "RQPKIWFPNRRKPWKKKENLKDCGLF [Peptide 6]", "values": [{"measurement": "histamine secretion from mast cells on incubation with increasing concentrations of peptide alone", "setting": "[1]", "result": "induced histamine secretion from mast cells in a concentration dependent manner"}]}
{"molecule": "KAAVALLPAVLLALLAPKNNLKECGLY [Peptide 13]", "values": [{"measurement": "Secretagogue (histamine secretion following incubation of mast cell with different concentrations of each peptide)", "setting": "[1]; Table 1, peptide alone", "result": "+"}, {"measurement": "histamine secretion from mast cells on incubation with increasing concentrations of peptide alone", "setting": "[1]", "result": "induced histamine secretion from mast cells in a concentration dependent manner"}]}
{"molecule": "RQPKIWFPNRRKPWKKKNNLKECGLY [Peptide 3]", "values": [{"measurement": "histamine secretion from mast cells on incubation with increasing concentrations of peptide alone", "setting": "[1]", "result": "induced histamine secretion from mast cells in a concentration dependent manner"}]}
{"molecule": "AAVALLPAVLLALLAPKNNLKDCGLF [Peptide 5m]", "values": [{"measurement": "Secretagogue (histamine secretion following incubation of mast cell with different concentrations of each peptide)", "setting": "[1]; Table 1, peptide alone", "result": "+"}, {"measurement": "histamine secretion from mast cells on incubation with increasing concentrations of peptide alone", "setting": "[1]", "result": "induced histamine secretion from mast cells in a concentration dependent manner"}]}
{"molecule": "AAVALLPAVLLALLAPKNNLKESGLY [Peptide 25]", "values": [{"measurement": "Secretagogue (histamine secretion following incubation of mast cell with different concentrations of each peptide)", "setting": "[1]; Table 1, peptide alone", "result": "+"}, {"measurement": "histamine secretion from mast cells on incubation with increasing concentrations of peptide alone", "setting": "[1]", "result": "induced histamine secretion from mast cells in a concentration dependent manner"}]}
{"molecule": "CC(C)C[C@H](NC(=O)CNC(=O)[C@H](CS)NC(=O)[C@H](CC(=O)O)NC(=O)[C@H](CCCCN)NC(=O)[C@H](CC(C)C)NC(=O)[C@H](CC(N)=O)NC(=O)[C@H](CCC(=O)O)NC(=O)[C@H](CCCCN)NC(=O)[C@@H]1CCCN1C(=O)[C@H](C)NC(=O)[C@H](CC(C)C)NC(=O)[C@H](CC(C)C)NC(=O)[C@H](C)NC(=O)[C@H](CC(C)C)NC(=O)[C@H](CC(C)C)NC(=O)[C@@H](NC(=O)[C@H](C)NC(=O)[C@@H]1CCCN1C(=O)[C@H](CC(C)C)NC(=O)[C@H](CC(C)C)NC(=O)[C@H](C)NC(=O)[C@@H](NC(=O)[C@H](C)NC(=O)[C@H](C)NC(=O)CCC(=O)O)C(C)C)C(C)C)C(=O)N[C@@H](Cc1ccccc1)C(=O)O", "note": "[Peptide 5-Suc] (Suc-AAVALLPAVLLALLAPKENLKDCGLF-OH; C-terminus assumed)", "values": [{"measurement": "Secretagogue (histamine secretion following incubation of mast cell with different concentrations of each peptide)", "setting": "[1]; Table 1, peptide alone", "result": "+"}, {"measurement": "histamine secretion from mast cells on incubation with increasing concentrations of peptide alone", "setting": "[1]", "result": "induced histamine secretion from mast cells in a concentration dependent manner"}, {"measurement": "Inhibitor (degree of inhibition of histamine secretion from mast cells)", "setting": "[2]; Table 1, incubation with different concentrations of each peptide, then induction of the allergic reaction", "result": "− (− No inhibition)"}]}
{"molecule": "AAVALLPAVLLALLAPYLGCEKLNNK [WALL023]", "values": [{"measurement": "histamine secretion from mast cells, peptide alone", "setting": "[1]; 600 μg/ml peptide", "result": "did not result in histamine secretion"}, {"measurement": "Secretagogue (histamine secretion following incubation of mast cell with different concentrations of each peptide)", "setting": "[1]; Table 9, peptide alone", "result": "−"}]}
{"molecule": "AAVALLPAVLLALLAPKQNLKECGLY [WALL006]", "values": [{"measurement": "Secretagogue (histamine secretion following incubation of mast cell with different concentrations of each peptide)", "setting": "[1]; Table 9, peptide alone", "result": "−"}, {"measurement": "histamine secretion from mast cells on incubation with increasing concentrations of peptide alone", "setting": "[1]", "result": "did not result in histamine secretion"}, {"measurement": "IC50, compound 48/80 induced histamine secretion", "setting": "[2]", "result": 560, "unit": "µg/mL"}]}
